# Test results from the pKa sets of Baltruschat and Czodrowski (2020).
# Where a SMILES comes first, the peptide text is derived from it. [ ]: non-standard residue; d: D form. pGlu = O=C1CC[C@@H](C(=O)O)N1
# Settings: acidic group
row,Structure (SMILES),pKa
1,O=C(O)c1csc(Cl)n1,3.3
2,O=C(O)c1ccccc1-c1nnn[nH]1,2.9
3,Oc1cnoc1,7.75
4,Nc1c2ccccc2[nH+]c2cccc(O)c12,5.61
5,O=C([O-])C[NH+](CC(=O)[O-])Cc1cc([N+](=O)[O-])ccc1O,6.18
6,CCOCCn1c(N2CCC[NH+](CCCCn3cc(C(=O)O)cn3)CC2)[nH+]c2ccccc21,3.7
7,C[n+]1ccc(C(=O)c2ccccc2)cc1,12.2
8,O=C(O)C(c1ccc(-c2ccccc2)cc1)C1(O)CCCC1 (stereo unspecified),3.65
9,Cc1cc(Cl)cc(Cl)c1O,7.85
10,CCN(CC)Cc1cc(C)ccc1O,10.8
11,CCOCC(=O)O,3.61
12,Nc1c2c(ncn2Cc2ccccc2)nc[n+]1[O-],11
13,O=C(O)c1cccc2ccc[nH+]c12,1.9
14,N#Cc1ncnc2nc[nH]c12,6.88
15,Cc1[nH]c2ccccc2c1C(=O)O,5.89
16,CSC(=S)N(C)CC(=O)O,2.98
17,Cc1ccc(O)c(Cc2cc(C)cc([N+](=O)[O-])c2O)c1,6.87
18,CCSC(C)(O)O,12.1
19,O=C1COC(=O)C1I (stereo unspecified),2.31
20,OC(O)=C1c2ccccc2-c2ccccc21,2.01
21,Cc1cc(S(=O)(=O)N(CCO)CCO)cc(C)c1O,8.25
22,CCCCCc1c(-c2ccccc2)nn(-c2ccccc2)c1O,7.3
23,C[C@H](NC(=O)[C@H](CCC(N)=O)NC(=O)[C@@H]1CCC(=O)N1)C(=O)O ([pGlu]-Gln-Ala-OH),3.67
24,CC(C)CNC=S,12.8
25,O=C(O)CCCCC1CCSS1 (stereo unspecified),4.82
26,Cc1cc(C(C)C)cc(C)c1O,10.9
27,COc1ccc(NC(=S)c2ccccc2)cc1,11.4

row,Structure (SMILES),pKa
1,CCCC1(Br)C(=O)NC(=O)NC1=O,6.6
2,OCc1cccc(CO)c1O,9.66
3,O=C(NO)c1ccccc1O,7.39
4,CC1(C)[C@@H]2CC[C@]1(C)C(=O)C2C(=O)O (stereo partly specified),3.76
5,N#Cc1nn[nH]c1C#N,1.47
6,O=C([O-])CNS(=O)(=O)c1ccccc1,11.4
7,Ic1ccc(-c2nnn[nH]2)cc1,3.88
8,CCC(=O)CC(=O)CC,9.82
9,Cc1c(C)c(O)c(C)c(C)c1[O-],12.8
10,Cc1csc(NS(=O)(=O)c2ccc(N)cc2)n1,7.12
11,NS(=O)(=O)c1ccsc1C(=O)O,3.3
12,Oc1ccc2nc3ccccc3nc2c1,7.45
13,CC(C#N)(CC(=O)O)c1ccccc1 (stereo unspecified),3.99
14,CCC(=O)/C=N/O,8.37
15,N#CC(C#N)=C(C(C#N)C#N)C(C#N)C#N,2.25
16,N#CCc1ccc(C#N)cc1[N+](=O)[O-],11.4
17,Cc1cc(O)c(=O)ccc1Br,6.6
18,Nc1nc(O)[n+]([C@@H]2C[C@@H](O)[C@H](CO)O2)cc1CO,3.55
19,CC#C/C=C/C(=O)O,4.2
20,Cc1cc(Cl)ccc1C(=O)O,3.75
21,O=C(O)[C@H]1C[C@H]2CC[C@@H]1C2,5.08
22,O=[N+]([O-])c1ccc(O)c(C[NH+]2CCCCC2)c1,5.88
23,Cc1ccc(O)cc1[S+](C)C,8.01
24,CC(C)C([NH3+])C(=O)O (stereo unspecified),2.41
25,COc1ccc(/C=C/C(=O)O)cc1,4.6
26,OCC[n+]1cc(Br)c2ccccc2c1,13.1
27,CSC1=NC(C)(C)C(O)=N1,9.48

row,Structure (SMILES),pKa
1,Cc1cc([O-])ccc1O,11.8
2,O/N=C/c1ccccc1O,9.21
3,O=C([O-])[C@@H](P)CC[C@H](P)C(=O)O,4.41
4,O=P1(O)CCCC1,2.51
5,Oc1cccc2cc3ccccc3cc12,9.88
6,CCCCCC[NH2+]CCC(=O)O,3.61
7,O=S(=O)(Nc1nccs1)c1ccccc1,5.73
8,Cc1nn(-c2ccccc2)c(O)c1Cc1ccccc1,11.8
9,O=S1(=O)N=CNc2cccnc21,6.94
10,CNc1nc2ncncc2[nH]1,9.56
11,O=C(O)[C@H]1CC[C@@H](O)CC1,4.84
12,CC(C)N(Cc1ccccc1O)C(C)C,11.4
13,[NH-]S(=O)(=O)c1nnc(Nc2ccccc2)s1,11.1
14,[NH3+]CCCCCCCCC(=O)O,4.53
15,O=C(O)CC(=O)/C=N/O,3.5
16,CCc1cc(O)cc(C)c1Cl,9.6
17,COc1cccc(C=O)c1O,7.91
18,CC1=C/C(=N\c2ccc(O)cc2)C(C(C)C)=CC1=O,8.85
19,O=S(=O)(NBr)c1ccccc1,4.95
20,Nc1nc([O-])c2nc[nH]c2n1,12.6
21,Cc1cnc2c(O)cccc2c1C,10.1
22,Cc1nsc(S)n1,5.18
23,CC(C)(C)Cc1ccc(O)cc1,10.7
24,CCOC(=O)/C(=N/O)c1ccccc1,8.95
25,CN(C)c1ncnc2nc[nH]c12,10.5

# Same assay, conditions: basic group
row,Structure (SMILES),pKa
1,CN1[C@@H]2CC[C@H]1[C@H](C(=O)[O-])[C@@H](O)C2,9.7
2,Nc1nc([Se-])c2ncn([C@H]3O[C@@H](CO)[C@H](O)[C@@H]3O)c2n1,7.68
3,[SH2+]c1ccc2ncccc2c1,3.95
4,NC(=S)C(N)Cc1ccccc1 (stereo unspecified),7.15
5,CC[C@H](C(=O)[O-])[C@H](CO)Cc1cncn1C,7.47
6,COc1ccc(CON)cc1,4.42
7,C[NH+](C)CCNCC[NH+](C)C,3.84
